Assay results taken from ChEMBL document CHEMBL3297720, “Synthesis and evaluation of N-alkyl-9-aminoacridines with antibacterial activity” (2014).
Converted amounts (≈) assume the structure as drawn. The source made the active and inactive calls. The rule behind the calls is not given here.

How the values were obtained:
Staphylococcus aureus [1] = experiment: Antibacterial activity against methicillin-sensitive Staphylococcus aureus […] 8545 after 16 to 20 hrs by broth microdilution assay; format: functional
Staphylococcus aureus [2] = experiment: Antibacterial activity against methicillin-resistant Staphylococcus aureus ATCC 43300 after 16 to 20 hrs by broth microdilution assay; format: functional
Staphylococcus aureus [3] = experiment: Antibacterial activity against methicillin-resistant Staphylococcus aureus IDRL 6169 after 16 to 20 hrs by broth microdilution assay; format: functional
Nucleic Acid = experiment: Binding affinity to relaxed plasmid DNA (unknown origin) assessed as DNA intercalation at 4 to 100 uM after 10 mins by gel electrophoresis in presence of human topoisomerase 1; format: nucleic-acid assay

With CCCCNc1c2ccccc2nc2cc(C(=O)N3CCN(C)CC3)ccc12 the MIC99 (Staphylococcus aureus [1]) was > 100 µM, the MIC99 (Staphylococcus aureus [2]) was > 100 µM and the MIC99 (Staphylococcus aureus [3]) was > 100 µM.

CCCCCCCCCCCCNc1c2ccccc2nc2ccccc12 showed an MIC99 (Staphylococcus aureus [1]) of 2.88 µM (≈ 1.04 µg/mL), an MIC99 (Staphylococcus aureus [2]) of 2.88 µM (≈ 1.04 µg/mL) and an MIC99 (Staphylococcus aureus [3]) of 2.73 µM (≈ 0.99 µg/mL).

With CCCCCCCCCCNc1c2ccccc2nc2cc(C(=O)N3CCN(C)CC3)ccc12 the MIC99 (Staphylococcus aureus [1]) was 12 µM (≈ 5.51 µg/mL), the Activity (Nucleic Acid) was “inactive” and the MIC99 (Staphylococcus aureus [2]) was 12.2 µM (≈ 5.6 µg/mL). It also gave an MIC99 (Staphylococcus aureus [3]) of 10.7 µM (≈ 4.95 µg/mL).

In the case of CCCCCNc1c2ccccc2nc2cc(C(=O)N3CCN(C)CC3)ccc12, the MIC99 (Staphylococcus aureus [1]) is reported as > 100 µM, the MIC99 (Staphylococcus aureus [2]) is reported as > 100 µM and the MIC99 (Staphylococcus aureus [3]) is reported as > 100 µM.

CCCCCCCCCCCNc1c2ccccc2nc2ccccc12 gave an MIC99 (Staphylococcus aureus [1]) of 3.81 µM (≈ 1.33 µg/mL), an MIC99 (Staphylococcus aureus [2]) of 2.01 µM (≈ 0.701 µg/mL) and an MIC99 (Staphylococcus aureus [3]) of 2.73 µM (≈ 0.951 µg/mL).

For CCCCCCCCCCCCCCCCNc1c2ccccc2nc2cc(C(=O)N3CCN(C)CC3)ccc12, the MIC99 (Staphylococcus aureus [1]) was 11.6 µM (≈ 6.31 µg/mL), the MIC99 (Staphylococcus aureus [2]) was 6.23 µM (≈ 3.39 µg/mL) and the MIC99 (Staphylococcus aureus [3]) was 9.06 µM (≈ 4.94 µg/mL).

For CCCCCCCNc1c2ccccc2nc2cc(C(=O)N3CCN(C)CC3)ccc12, the MIC99 (Staphylococcus aureus [1]) was > 100 µM, the MIC99 (Staphylococcus aureus [2]) was > 100 µM and the MIC99 (Staphylococcus aureus [3]) was > 100 µM.

Molecule CCCCCCCCCCCNc1c2ccccc2nc2cc(C(=O)N3CCN(C)CC3)ccc12 has an MIC99 (Staphylococcus aureus [1]) of 6.23 µM (≈ 2.96 µg/mL), an MIC99 (Staphylococcus aureus [2]) of 3.61 µM (≈ 1.71 µg/mL) and an MIC99 (Staphylococcus aureus [3]) of 6.14 µM (≈ 2.91 µg/mL).

CCCCCNc1c2ccccc2nc2ccccc12 was tested, and the MIC99 (Staphylococcus aureus [1]) was > 100 µM, the MIC99 (Staphylococcus aureus [2]) was > 100 µM and the MIC99 (Staphylococcus aureus [3]) was > 100 µM.

CCCCCCNc1c2ccccc2nc2ccccc12 was tested, and the MIC99 (Staphylococcus aureus [1]) was > 100 µM, the MIC99 (Staphylococcus aureus [2]) was 50.6 µM (≈ 14.1 µg/mL) and the MIC99 (Staphylococcus aureus [3]) was 46.9 µM (≈ 13.1 µg/mL).

CCCCCCCCCCCCCCCNc1c2ccccc2nc2cc(C(=O)N3CCN(C)CC3)ccc12 gave an MIC99 (Staphylococcus aureus [1]) of 5.91 µM (≈ 3.14 µg/mL), an MIC99 (Staphylococcus aureus [2]) of 4.59 µM (≈ 2.44 µg/mL) and an MIC99 (Staphylococcus aureus [3]) of 8.59 µM (≈ 4.56 µg/mL).

CCCCCCCCCCCCCCNc1c2ccccc2nc2ccccc12 was tested, and the MIC99 (Staphylococcus aureus [1]) was 2.98 µM (≈ 1.16 µg/mL), the MIC99 (Staphylococcus aureus [2]) was 3.07 µM (≈ 1.2 µg/mL) and the MIC99 (Staphylococcus aureus [3]) was 2.15 µM (≈ 0.84 µg/mL).

For CCCCCCCCCCCCCNc1c2ccccc2nc2cc(C(=O)N3CCN(C)CC3)ccc12, the MIC99 (Staphylococcus aureus [1]) was 3.57 µM (≈ 1.79 µg/mL), the MIC99 (Staphylococcus aureus [2]) was 2.91 µM (≈ 1.46 µg/mL) and the MIC99 (Staphylococcus aureus [3]) was 3.07 µM (≈ 1.54 µg/mL).

In the case of CCCNc1c2ccccc2nc2ccccc12, the MIC99 (Staphylococcus aureus [1]) is reported as > 100 µM, the Activity (Nucleic Acid) is reported as “Active” and the MIC99 (Staphylococcus aureus [2]) is reported as > 100 µM. For the same molecule, the MIC99 (Staphylococcus aureus [3]) was > 100 µM.

CCCNc1c2ccccc2nc2cc(C(=O)N3CCN(C)CC3)ccc12 was tested, and the MIC99 (Staphylococcus aureus [1]) was > 100 µM, the Activity (Nucleic Acid) was “Active” and the MIC99 (Staphylococcus aureus [2]) was > 100 µM. The MIC99 (Staphylococcus aureus [3]) was > 100 µM.

For CCCCCCCCCCCCCNc1c2ccccc2nc2ccccc12, the MIC99 (Staphylococcus aureus [1]) was 2.61 µM (≈ 0.983 µg/mL), the MIC99 (Staphylococcus aureus [2]) was 3.04 µM (≈ 1.14 µg/mL) and the MIC99 (Staphylococcus aureus [3]) was 2.8 µM (≈ 1.05 µg/mL).

Work on CCCCCCCCCNc1c2ccccc2nc2ccccc12 yielded an MIC99 (Staphylococcus aureus [1]) of 5.95 µM (≈ 1.91 µg/mL), an MIC99 (Staphylococcus aureus [2]) of 3.19 µM (≈ 1.02 µg/mL) and an MIC99 (Staphylococcus aureus [3]) of 3.59 µM (≈ 1.15 µg/mL).

CCCCCCCCCCCCCCCCNc1c2ccccc2nc2ccccc12 showed an MIC99 (Staphylococcus aureus [1]) of 26.2 µM (≈ 11 µg/mL), an MIC99 (Staphylococcus aureus [2]) of 24.7 µM (≈ 10.3 µg/mL) and an MIC99 (Staphylococcus aureus [3]) of 10.1 µM (≈ 4.25 µg/mL).

CCCCCCCCNc1c2ccccc2nc2ccccc12 showed an MIC99 (Staphylococcus aureus [1]) of 10.3 µM (≈ 3.14 µg/mL), an MIC99 (Staphylococcus aureus [2]) of 8.54 µM (≈ 2.62 µg/mL) and an MIC99 (Staphylococcus aureus [3]) of 10.8 µM (≈ 3.31 µg/mL).

With CCCCCCCCCCNc1c2ccccc2nc2ccccc12 the MIC99 (Staphylococcus aureus [1]) was 2.61 µM (≈ 0.873 µg/mL), the Activity (Nucleic Acid) was “inactive” and the MIC99 (Staphylococcus aureus [2]) was 2.19 µM (≈ 0.733 µg/mL). It also gave an MIC99 (Staphylococcus aureus [3]) of 3.29 µM (≈ 1.1 µg/mL).

In the case of CCCCCCCCCCCCCCNc1c2ccccc2nc2cc(C(=O)N3CCN(C)CC3)ccc12, the MIC99 (Staphylococcus aureus [1]) is reported as 6.25 µM (≈ 3.23 µg/mL), the MIC99 (Staphylococcus aureus [2]) is reported as 5.82 µM (≈ 3.01 µg/mL) and the MIC99 (Staphylococcus aureus [3]) is reported as 6.13 µM (≈ 3.17 µg/mL).

In the case of CCCCCCCCCCCCNc1c2ccccc2nc2cc(C(=O)N3CCN(C)CC3)ccc12, the MIC99 (Staphylococcus aureus [1]) is reported as 4.8 µM (≈ 2.35 µg/mL), the MIC99 (Staphylococcus aureus [2]) is reported as 6.28 µM (≈ 3.07 µg/mL) and the MIC99 (Staphylococcus aureus [3]) is reported as 5.87 µM (≈ 2.87 µg/mL).

For CCCCCCCCCCCCCCCNc1c2ccccc2nc2ccccc12, the MIC99 (Staphylococcus aureus [1]) was 5.69 µM (≈ 2.3 µg/mL), the MIC99 (Staphylococcus aureus [2]) was 6.1 µM (≈ 2.47 µg/mL) and the MIC99 (Staphylococcus aureus [3]) was 3.21 µM (≈ 1.3 µg/mL).

With CCCCCCCNc1c2ccccc2nc2ccccc12 the MIC99 (Staphylococcus aureus [1]) was 27.5 µM (≈ 8.05 µg/mL), the MIC99 (Staphylococcus aureus [2]) was 24.5 µM (≈ 7.16 µg/mL) and the MIC99 (Staphylococcus aureus [3]) was 22.9 µM (≈ 6.68 µg/mL).

CCCCNc1c2ccccc2nc2ccccc12 was tested, and the MIC99 (Staphylococcus aureus [1]) was > 100 µM, the MIC99 (Staphylococcus aureus [2]) was > 100 µM and the MIC99 (Staphylococcus aureus [3]) was > 100 µM.

CCCCCCCCCNc1c2ccccc2nc2cc(C(=O)N3CCN(C)CC3)ccc12 gave an MIC99 (Staphylococcus aureus [1]) of 35.5 µM (≈ 15.8 µg/mL), an MIC99 (Staphylococcus aureus [2]) of 22.7 µM (≈ 10.1 µg/mL) and an MIC99 (Staphylococcus aureus [3]) of 23.7 µM (≈ 10.6 µg/mL).

In the case of CCCCCCNc1c2ccccc2nc2cc(C(=O)N3CCN(C)CC3)ccc12, the MIC99 (Staphylococcus aureus [1]) is reported as > 100 µM, the MIC99 (Staphylococcus aureus [2]) is reported as > 100 µM and the MIC99 (Staphylococcus aureus [3]) is reported as > 100 µM.

In the case of CCCCCCCCNc1c2ccccc2nc2cc(C(=O)N3CCN(C)CC3)ccc12, the MIC99 (Staphylococcus aureus [1]) is reported as > 100 µM, the MIC99 (Staphylococcus aureus [2]) is reported as > 100 µM and the MIC99 (Staphylococcus aureus [3]) is reported as > 100 µM.
